Experimental data published in patent US8481528B2 (Hoffmann-La Roche Inc., priority 2010, dated 2013).
pKi: −log10 of the molar value. Structures can show the parent of a compound that is named as a salt. Where two headings read alike, the source gives them in different places.

Target: T1, human V1a receptor (Homo sapiens, UniProt P37288)
T1 construct: expressed in transfected cells; host or cells: HEK293 cells, transiently transfected; cell membranes
Assay: human V1a receptor binding (3H-Vasopressin SPA, HEK293 membranes)
Conditions: for Ki: 3H-Vasopressin displacement, membranes of HEK293 cells transiently transfected with human V1a receptor, Ki by Cheng-Prusoff, read-out: pKi (hV1a) (converted)
Procedure: The human V1a receptor was cloned by RT-PCR from total human liver RNA. The coding sequence was subcloned in an expression vector after sequencing to confirm the identity of the amplified sequence. […] Cell membranes were prepared from HEK293 cells transiently transfected with the expression vector and grown in 20 liter fermenters with the following protocol.
50 g of cells are resuspended in 30 ml freshly prepared ice cold Lysis buffer (50 mM HEPES, 1 mM EDTA, 10 mM magnesium dichloride adjusted to pH=7.4+complete cocktail of protease inhibitor (Roche Diagnostics)). Homogenized with Polytron for 1 min and sonicated on ice for 2×2 minutes at 80% intensity (Vibracell sonicator). The preparation is centrifuged 20 min at 500 g at 4° C., the pellet is discarded and the supernatant centrifuged 1 hour at 43′000 g at 4° C. (19'000 rpm). The pellet is resuspended in 12.5 ml Lysis buffer+12.5 ml sucrose 20% and homogenized using a Polytron for 1-2 min. The protein concentration is determined by the Bradford method and aliquots are stored at −80° C. until use. For binding studies 60 mg Yttrium silicate SPA beads (Amersham®) are mixed with an aliquot of membrane in binding buffer (50 mM Tris, 120 mM sodium chloride, 5 mM potassium chloride, 2 mM calcium dichloride, 10 mM magnesium dichloride) for 15 minutes with mixing. 50 μl of bead/membrane mixture is then added to each well of a 96 well plate, followed by 50 μl of 4 nM 3H-Vasopressin (American Radiolabeled Chemicals). For total binding measurement 100 μl of binding buffer are added to the respective wells, for non-specific binding 100 μl of 8.4 mM cold vasopressin and for compound testing 100 μl of a serial dilution of each compound in 2% dimethyl sulfoxide. The plate is incubated 1 h at room temperature, centrifuged 1 min at 1000 g and counted on a Packard Top-Count. Non-specific binding counts are subtracted from each well and data is normalized to the maximum specific binding set at 100%. To calculate an IC50 the curve is fitted using a non-linear regression model (XLfit) and the Ki is calculated using the Cheng-Prussoff equation.

T1 sequence (P37288 whole entry): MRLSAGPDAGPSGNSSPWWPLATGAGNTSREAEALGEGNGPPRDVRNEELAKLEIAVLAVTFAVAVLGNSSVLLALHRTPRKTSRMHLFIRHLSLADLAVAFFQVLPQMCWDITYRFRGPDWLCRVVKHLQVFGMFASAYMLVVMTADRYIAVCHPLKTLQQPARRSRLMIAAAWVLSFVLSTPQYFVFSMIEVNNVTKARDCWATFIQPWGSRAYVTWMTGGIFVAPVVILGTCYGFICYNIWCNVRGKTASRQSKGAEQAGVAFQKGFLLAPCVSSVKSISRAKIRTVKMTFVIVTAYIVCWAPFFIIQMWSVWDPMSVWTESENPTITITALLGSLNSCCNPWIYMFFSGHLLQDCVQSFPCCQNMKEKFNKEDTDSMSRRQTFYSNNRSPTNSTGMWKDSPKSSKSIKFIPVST

Row | Compound | Ki [nM] | pKi
1 | CC(C)(C)OC(=O)N1Cc2cc(Cl)ccc2-n2c(nnc2[C@H]2CC[C@@H](c3noc4ccccc43)CC2)C1 [Example 1, cis-1-(4-Benzo[d]isoxazol-3-yl-cyclohexyl)-8-chloro-4H,6H-2,3,5,10b-tetraaza-benzo[e]azulene-5-carboxylic acid tert-butyl ester] | 8.91 | 
2 | CC(C)(C)OC(=O)N1Cc2cc(Cl)ccc2-n2c(nnc2[C@H]2CC[C@H](c3noc4ccccc43)CC2)C1 [Example 2, trans-1-(4-Benzo[d]isoxazol-3-yl-cyclohexyl)-8-chloro-4H,6H-2,3,5,10b-tetraaza-benzo[e]azulene-5-carboxylic acid tert-butyl ester] | 4.79 | 
3 | Clc1ccc2c(c1)CNCc1nnc([C@H]3CC[C@@H](c4noc5ccccc54)CC3)n1-2 [Example 3, cis-1-(4-Benzo[d]isoxazol-3-yl-cyclohexyl)-8-chloro-5,6-dihydro-4H-2,3,5,10b-tetraaza-benzo[e]azulene hydrochloride] | 11.2 | 
4 | CN1Cc2cc(Cl)ccc2-n2c(nnc2[C@H]2CC[C@@H](c3noc4ccccc43)CC2)C1 [Example 4, cis-1-(4-Benzo[d]isoxazol-3-yl-cyclohexyl)-8-chloro-5-methyl-5,6-dihydro-4H-2,3,5,10b-tetraaza-benzo[e]azulene] |  | 8.12
5 | Clc1ccc2c(c1)CNCc1nnc([C@H]3CC[C@H](c4noc5ccccc54)CC3)n1-2 [Example 5, trans-1-(4-Benzo[d]isoxazol-3-yl-cyclohexyl)-8-chloro-5,6-dihydro-4H-2,3,5,10b-tetraaza-benzo[e]azulene hydrochloride] | 0.891 | 
6 | CN1Cc2cc(Cl)ccc2-n2c(nnc2[C@H]2CC[C@H](c3noc4ccccc43)CC2)C1 [Example 6, trans-1-(4-Benzo[d]isoxazol-3-yl-cyclohexyl)-8-chloro-5-methyl-5,6-dihydro-4H-2,3,5,10b-tetraaza-benzo[e]azulene] |  | 9.10
7 | CC(C)(C)OC(=O)N1Cc2cc(Cl)ccc2-n2c(nnc2[C@H]2CC[C@H](c3noc4cc(F)ccc43)CC2)C1 [Example 7, trans-8-Chloro-[4-(6-fluoro-benzo[d]isoxazol-3-yl)-cyclohexyl]-4H,6H-2,3,5,10b-tetraaza-benzo[e]azulene-5-carboxylic acid tert-butyl ester] | 4.79 | 
8 | Fc1ccc2c(c1)onc2[C@H]1CC[C@H](c2nnc3n2-c2ccc(Cl)cc2CNC3)CC1 [Example 8, trans-8-Chloro-1-[4-(6-fluoro-benzo[d]isoxazol-3-yl)-cyclohexyl]-5,6-dihydro-4H-2,3,5,10b-tetraaza-benzo[e]azulene hydrochloride] | 1.51 | 
9 | CN1Cc2cc(Cl)ccc2-n2c(nnc2[C@H]2CC[C@H](c3noc4cc(F)ccc43)CC2)C1 [Example 9, trans-8-Chloro-1-[4-(6-fluoro-benzo[d]isoxazol-3-yl)-cyclohexyl]-5-methyl-5,6-dihydro-4H-2,3,5,10b-tetraaza-benzo[e]azulene] | 1.2 | 
10 | CC(C)(C)OC(=O)N1Cc2cc(Cl)ccc2-n2c(nnc2[C@H]2CC[C@H](c3noc4ccc(F)cc43)CC2)C1 [Example 10, trans-8-Chloro-1-[4-(5-fluoro-benzo[d]isoxazol-3-yl)-cyclohexyl]-4H,6H-2,3,5,10b-tetraaza-benzo[e]azulene-5-carboxylic acid tert-butyl ester] | 3.24 | 
11 | Fc1ccc2onc([C@H]3CC[C@H](c4nnc5n4-c4ccc(Cl)cc4CNC5)CC3)c2c1 [Example 11, trans-8-Chloro-1-[4-(5-fluoro-benzo[d]isoxazol-3-yl)-cyclohexyl]-5,6-dihydro-4H-2,3,5,10b-tetraaza-benzo[e]azulene hydrochloride] | 2.09 | 
12 | CN1Cc2cc(Cl)ccc2-n2c(nnc2[C@H]2CC[C@H](c3noc4ccc(F)cc43)CC2)C1 [Example 12, trans-8-Chloro-1-[4-(5-fluoro-benzo[d]isoxazol-3-yl)-cyclohexyl]-5-methyl-5,6-dihydro-4H-2,3,5,10b-tetraaza-benzo[e]azulene] | 0.794 | 
13 | CC(C)(C)OC(=O)N1Cc2cc(Cl)ccc2-n2c(nnc2[C@H]2CC[C@H](c3noc4cccnc43)CC2)C1 [Example 13, trans-8-Chloro-1-(4-isoxazolo[4,5-b]pyridin-3-yl-cyclohexyl)-4H,6H-2,3,5,10b-tetraaza-benzo[e]azulene-5-carboxylic acid tert-butyl ester] | 2.69 | 
14 | Clc1ccc2c(c1)CNCc1nnc([C@H]3CC[C@H](c4noc5cccnc54)CC3)n1-2 [Example 14, trans-8-Chloro-1-(4-isoxazolo[4,5-b]pyridin-3-yl-cyclohexyl)-5,6-dihydro-4H-2,3,5,10b-tetraaza-benzo[e]azulene hydrochloride] | 2.19 | 
15 | CN1Cc2cc(Cl)ccc2-n2c(nnc2[C@H]2CC[C@H](c3noc4cccnc43)CC2)C1 [Example 15, trans-8-Chloro-1-(4-isoxazolo[4,5-b]pyridin-3-yl-cyclohexyl)-5-methyl-5,6-dihydro-4H-2,3,5,10b-tetraaza-benzo[e]azulene] | 0.708 | 
16 | CC(C)(C)OC(=O)N1Cc2cc(Cl)ccc2-n2c(nnc2[C@H]2CC[C@H](c3noc4ncccc43)CC2)C1 [Example 16, trans-8-Chloro-1-(4-isoxazolo[5,4-b]pyridin-3-yl-cyclohexyl)-4H,6H-2,3,5,10b-tetraaza-benzo[e]azulene-5-carboxylic acid tert-butyl ester] |  | 8.44
17 | Clc1ccc2c(c1)CNCc1nnc([C@H]3CC[C@H](c4noc5ncccc54)CC3)n1-2 [Example 17, trans-8-Chloro-1-(4-isoxazolo[5,4-b]pyridin-3-yl-cyclohexyl)-5,6-dihydro-4H-2,3,5,10b-tetraaza-benzo[e]azulene hydrochloride] | 5.25 | 
18 | CN1Cc2cc(Cl)ccc2-n2c(nnc2[C@H]2CC[C@H](c3noc4ncccc43)CC2)C1 [Example 18, trans-8-Chloro-1-(4-isoxazolo[5,4-b]pyridin-3-yl-cyclohexyl)-5-methyl-5,6-dihydro-4H-2,3,5,10b-tetraaza-benzo[e]azulene] | 0.891 | 
19 | CC(C)(C)OC(=O)N1Cc2cc(Cl)ccc2-n2c(nnc2[C@H]2CC[C@H](c3nsc4ccccc43)CC2)C1 [Example 19, trans-1-(4-Benzo[d]isothiazol-3-yl-cyclohexyl)-8-chloro-4H,6H-2,3,5,10b-tetraaza-benzo[e]azulene-5-carboxylic acid tert-butyl ester] | 7.59 | 
20 | Clc1ccc2c(c1)CNCc1nnc([C@H]3CC[C@H](c4nsc5ccccc54)CC3)n1-2 [Example 20, trans-1-(4-Benzo[d]isothiazol-3-yl-cyclohexyl)-8-chloro-5,6-dihydro-4H-2,3,5,10b-tetraaza-benzo[e]azulene hydrochloride] |  | 8.82
21 | CN1Cc2cc(Cl)ccc2-n2c(nnc2[C@H]2CC[C@H](c3nsc4ccccc43)CC2)C1 [Example 21, trans-1-(4-Benzo[d]isothiazol-3-yl-cyclohexyl)-8-chloro-5-methyl-5,6-dihydro-4H-2,3,5,10b-tetraaza-benzo[e]azulene] | 1.58 | 
22 | Clc1ccc2c(c1)CN(C1CCC1)Cc1nnc([C@H]3CC[C@H](c4nsc5ccccc54)CC3)n1-2 [Example 22, trans-1-(4-Benzo[d]isothiazol-3-yl-cyclohexyl)-8-chloro-5-cyclobutyl-5,6-dihydro-4H-2,3,5,10b-tetraaza-benzo[e]azulene] |  | 9.52
23 | CNCCN1Cc2cc(Cl)ccc2-n2c(nnc2[C@H]2CC[C@H](c3nsc4ccccc43)CC2)C1 [Example 23, trans-{2-[1-(4-Benzo[d]isothiazol-3-yl-cyclohexyl)-8-chloro-4H,6H-2,3,5,10b-tetraaza-benzo[e]azulen-5-yl]-ethyl}-methyl-amine] | 0.603 | 
24 | CC(=O)N1Cc2cc(Cl)ccc2-n2c(nnc2[C@H]2CC[C@H](c3nsc4ccccc43)CC2)C1 [Example 24, trans-1-[1-(4-Benzo[d]isothiazol-3-yl-cyclohexyl)-8-chloro-4H,6H-2,3,5,10b-tetraaza-benzo[e]azulen-5-yl]-ethanone] |  | 9.40
25 | CN(C)CC(=O)N1Cc2cc(Cl)ccc2-n2c(nnc2[C@H]2CC[C@H](c3nsc4ccccc43)CC2)C1 [Example 25, trans-1-[1-(4-Benzo[d]isothiazol-3-yl-cyclohexyl)-8-chloro-4H,6H-2,3,5,10b-tetraaza-benzo[e]azulen-5-yl]-2-dimethylamino-ethanone] | 0.302 | 
26 | CS(=O)(=O)N1Cc2cc(Cl)ccc2-n2c(nnc2[C@H]2CC[C@H](c3nsc4ccccc43)CC2)C1 [Example 26, trans-1-(4-Benzo[d]isothiazol-3-yl-cyclohexyl)-8-chloro-5-methanesulfonyl-5,6-dihydro-4H-2,3,5,10b-tetraaza-benzo[e]azulene] | 0.302 | 
